# Data published in patent publication US20230107216A1, “PANTETHEINE DERIVATIVES AND USES THEREOF” (Comet Therapeutics, Inc., priority 2018, published 2023).
# Read-outs that look alike come from different tables or passages of the source.
# Tests used:
# [1] = system: Keratinocytes co-cultured with dermal fibroblast (KF3CT system); assay: BioMAP KF3CT system (IL-1β, TNFα, IFNγ, TGFβ); type: cell-based, human; conditions: for % increase in MCP-1: procedure of Example 834
# Procedure: (§1) The BioMAP platform (BioMAP® Diversity PLUS® Panel from Eurofins) is an in vitro phenotypic profiling technology that screened the compounds of the present disclosure (hereafter indicated as test agents) in human primary cell-based systems modelling complex tissue and disease states. The BioMAP assays were performed using the Eurofin's BioMAP Technology Platform as (see references 1 to 13 in the example 824 section) to model different diseases on primary cell-based model systems. These systems consisted of either single primary cell types or co-culture cells. Adherent cell types were cultured or co-cultured in 96 or 384-well plates until confluence followed by the addition of compounds prepared in DMSO at a final concentration of ≤0.1%. In each cell-based system, primary cells from heathy donors (2-6 donors) were pooled and treated with compounds at 1 and 10 μM dose 1h prior to stimulation and remain in culture as indicated in Example 825, Example 826, Example 827, Example 828, Example 829, Example 830, Example 831, Example 832, Example 833, Example 834, Example 835, Example 836 and Example 837. For on the BioMAP® Diversity PLUS® Panel, please see the following references, which are incorporate herein.
# Following the general procedure as described in Example 824, Keratinocytes were co-cultured with dermal fibroblast (KF3CT system) and treated with IL-1β, TNFα, IFNγ and TGFβ for 24h in the presence or absence of the compounds to model psoriasis, dermatitis and skin biology. Biomarkers read out were; MCP-1, ICAM-1, IP-10, IL-8, MIG, IL-1α, MMP-9, PAI-1, SRB, TIMP-2, uPA.
# [2] = system: Venular Endothelial cells (HUVEC) (4H system); assay: BioMAP 4H system (IL-4 and histamine); type: cell-based, human; conditions: procedure of Example 826; for inhibition at 10 µM / inhibition at 1 µM: Homo sapiens, HUVEC, 24 h; for % decrease in MCP-1 / inhibition at 1 µM / % decrease in Eotaxin-3: 1 uM
# [3] = system: Subnormal activation of pyruvate dehydrogenase complex (PDH) primary fibroblasts GM01503 (GM1503A); assay: Total NAD+ + NADH and NAD+ (NAD/NADH-Glo), PDH fibroblasts GM01503; type: cell-based; conditions: Homo sapiens, Fibroblast, 24h, read-out: Increase in Total NAD+ + NADH
# Procedure: Primary adherent fibroblasts were cultured in minimum essential medium (MEM) (Gibco, 25030081) supplemented with 2 mM L-Glutamine (Gibco, 25030081), 15% fetal bovine serum (FBS) (Gibco, 26400044) and 1% penicillin/streptomycin (Gibco, 5140122) at 37° C. and 5% CO2. Cells were collected for either passaging or experiment at ˜70-80% confluence. Cells were obtained by trypsinization and seeded in cell culture microplates either white plate (Thermo Fisher Scientific, 152028) for luminescent measurement or black plate (Thermo Fisher Scientific, 165305) for fluorescent based read out for different assays listed below. Cells were obtained by trypsinization and […] were seeded and allowed to adhere for 16-18 hours to have confluency around 70-80% in the cell well with culture media. After 24 hours prior to measurements (37° C., 5% CO2) media was changed to Dulbecco's Modified Eagle Medium (DMEM, Agilent Seahorse cat #103575-100) with the appropriate supplements as stated below.
# Primary fibroblasts assayed were Propionic Acidemia (PA) (GM03590 Coriell Institute for Medical Research, Tsi 6337 Trans-Hit Bio), Methylmalonic Acidemia (MMA) (Tsi 5224 Trans-Hit Bio), Subnormal activation of pyruvate dehydrogenase complex (PDH) (GM01503 Coriell Institute for Medical Research), Very long-chain acyl-CoA dehydrogenase (VLCAD) (GM17475), Leigh Syndrome (LS) (GM03672, GM13411 Coriell Institute for Medical Research), Pyruvate Carboxylase Deficiency (PC) (GM00444 Coriell Institute for Medical Research). 10 μM of Compounds were added for 2 hours in PA, MMA lines and for 24h for the other fibroblast lines.
# Assay was performed according to manufacturer instructions (NAD/NADH-Glo Assay Promega, G9072). The NAD/NADH-Glo Assay is a bioluminescent assay for detecting total oxidized and reduced nicotinamide adenine dinucleotides (NAD+ and NADH, respectively) from which ratio of NAD/NADH can be calculated. Briefly, for every assay a 12-point standard curve was prepared ranging from 400 nM to 0.625 nM. Media was removed and replaced with 50 μl of PBS for both assays.
# For individual NAD+ and NADH measurement, 50 μl of 1% DTAB (Sigma Cat #D5047) (cell lysis reagent) in 0.2N NaOH was added to the plate and a total 100 μl of lysate was split into two plates with 50 μl each. 25 μl of 0.4N HCl were added to the NAD+ plate and both NAD+ and NADH plate were heated at 60° C. for 15 minutes. The acid and heat treatment destroyed NADH allowing individual NAD+ measurement while heating in basic conditions destroys NAD+ allowed individual NADH measurements. The plates were allowed to come to room temperature for 10 minutes and Trizma base (Sigma, T1699) was added to the NAD+ plate to neutralize the acid and HCl Trizma hydrochloride (Sigma, T2694) was added to the NADH plate. The NADNADH glo reagent was prepared by adding: 625 μl of NAD cycling substrate, 125 μl of reductase, 125 μl of reductase substrate, 125 μl NAD cycling enzyme to total of the 25 ml of NAD GLO reagent. 1:1 ratio of total volume of reagent was added to the individual NAD+, NADH measurement (total 100 μl) and 50 μl for total NAD/NAH measurement. Luminescence was read between 30-60 minutes within the linear range.
# A total dead cell count was performed as described in Example 817 and only alive cells were used for analysis.
# [4] = system: Peripheral blood mononuclear cells co-cultured with venular endothelial cells (Sag system); assay: BioMAP Sag system (T-cell ligands); type: cell-based, human; conditions: 10 uM; procedure of Example 828
# Procedure: as §1
# Following the general procedure as described in Example 824, Peripheral blood mononuclear cells were co-cultured with venular endothelial cells and treated with soluble antigen (T-cell ligands) (Sag system) in the presence or absence of compounds to model autoimmune and chronic inflammation. Biomarkers read out were; MCP-1, CD38, CD40, E-selectin, CD69, IL-8, MIG, PBMC cytotoxicity, Proliferation and SRB.
# [5] = 10 uM, read-out: % decrease in VEGFRII
# [6] = PDH GM1503A P10, assay condition A
# [7] = read-out: % decrease in E-Selectin
# [8] = read-out: % decrease in VEGFRII
# [9] = PDH GM1503A P10, assay condition B
# [10] = 10 uM, read-out: % decrease in E-Selectin
smiles,measurement,setting,value
"CC(=O)OCC(C)(C)[C@@H](OC(C)=O)C(=O)NCCC(=O)NCCSC(C)=O [Compound 1264, (1R)-3-(acetyloxy)-1-[(2-[[2-(acetylsulfanyl)ethyl]carbamoyl]ethyl)carbamoyl]-2,2-dimethylpropyl acetate]",% decrease in IL-1a,[1]; 1 uM,≥10%
same,% increase in MCP-1,[1]; 1 uM,≥10%
same,inhibition at 10 µM,[2]; [5],≥ 10%
same,activation at 10 µM,[3]; [6],≥ 10%
"COC(=O)CCC(=O)SCCNC(=O)CCNC(=O)[C@H](OC(=O)CN)C(C)(C)CO [Compound 1294, methyl 4-[(2-[3-[(2R)-2-[(2-aminoacetyl)oxy]-4-hydroxy-3,3-dimethylbutanamido]propanamido]ethyl)sulfanyl]-4-oxobutanoate]",% decrease in MMP-9,[1]; 1 uM,≥10%
same,% increase in IL-1α,[1]; 10 uM,≥10%
same,% decrease in MCP-1,[2],≥10%
"CCCCCCC(=O)SCCNC(=O)CCNC(=O)[C@H](O)C(C)(C)CO [Compound 372, (2R)—N-(2-[[2-(heptanoylsulfanyl)ethyl]carbamoyl]ethyl)-2,4-dihydroxy-3,3-dimethylbutanamide]",% increase in Proliferation,[4],≥10%
same,inhibition at 1 µM,[2]; [7],≥ 10%
"CC(=O)SCCNC(=O)CCNC(=O)[C@H](O)C(C)(C)COC(=O)[C@@H](N)Cc1ccc(O)c(O)c1 [Compound 498, (3R)-3-[(2-[[2-(acetylsulfanyl)ethyl]carbamoyl]ethyl)carbamoyl]-3-hydroxy-2,2-dimethylpropyl (2S)-2-amino-3-(3,4-dihydroxyphenyl)propanoate]",% increase in MCP-1,[1]; 1 uM,≥10%
same,% increase in TIMP-2,[1]; 10 uM,≥10%
same,% decrease in Proliferation,[4],≥10%
same,inhibition at 1 µM,[2]; [7],≥ 10%
same,inhibition at 10 µM,[2]; [5],≥ 10%
"CC(C)(CO)[C@@H](O)C(=O)NCCC(=O)NCCSC(=O)[C@@H](N)Cc1ccc(O)c(O)c1 [Compound 371, (2R)—N-[2-[(2-[[(2S)-2-amino-3-(3,4-dihydroxyphenyl)propanoyl]sulfanyl]ethyl)carbamoyl]ethyl]-2,4-dihydroxy-3,3-dimethylbutanamide]",% increase in MMP-9,[1]; 1 uM,≥10%
same,% increase in MCP-1,[1]; 1 uM,≥10%
same,% decrease in Proliferation,[4],≥10%
same,% increase in PBMC cytotoxicity,[4],≥10%
same,inhibition at 10 µM,[2]; [5],≥ 10%
"CCC(=O)CC(=O)SCCNC(=O)CCNC(=O)[C@H](O)C(C)(C)CO [Compound 382, (2R)-2,4-dihydroxy-3,3-dimethyl-N-[2-([2-[(3-oxopentanoyl)sulfanyl]ethyl]carbamoyl)ethyl]butanamide]",activation at 10 µM,[3]; [6],≥ 10%
"COC(=O)CCC(=O)SCCNC(=O)CCNC(=O)[C@H](OC(=O)CNC(C)=O)C(C)(C)CO [Compound 1298, methyl 4-[(2-[3-[(2R)-2-[(2-acetamidoacetyl)oxy]-4-hydroxy-3,3-dimethylbutanamido]propanamido]ethyl)sulfanyl]-4-oxobutanoate]",% decrease in Eotaxin-3,[2],≥10%
same,% decrease in MCP-1,[2],≥10%
same,inhibition at 1 µM,[2]; [8],≥ 10%
COC(=O)CCC(=O)SCCNC(=O)CCNC(=O)[C@H](O)C(C)(C)COC(C)=O [Compound 138],% increase in SRB,[1]; 10 uM,≥10%
same,inhibition at 1 µM,[2]; [8],≥ 20%
"CC(=O)SCCNC(=O)CCNC(=O)[C@H](O)C(C)(C)COC(=O)[C@H](C)N [Compound 502, (3R)-3-[(2-[[2-(acetylsulfanyl)ethyl]carbamoyl]ethyl)carbamoyl]-3-hydroxy-2,2-dimethylpropyl (2S)-2-aminopropanoate]",inhibition at 10 µM,[2]; [5],≥ 10%
same,activation at 10 µM,[3]; [9],≥ 10%
"C[C@H](O)CC(=O)CC(=O)SCCNC(=O)CCNC(=O)[C@H](O)C(C)(C)CO [Compound 1306, (2R)-2,4-dihydroxy-N-[2-[(2-[[(5S)-5-hydroxy-3-oxohexanoyl]sulfanyl]ethyl)carbamoyl]ethyl]-3,3-dimethylbutanamide]",activation at 10 µM,[3]; [9],≥ 10%
"C[C@@H](O)CC(=O)CC(=O)SCCNC(=O)CCNC(=O)[C@H](O)C(C)(C)CO [Compound 42, (2R)-2,4-dihydroxy-N-[2-[(2-[[(5R)-5-hydroxy-3-oxohexanoyl]sulfanyl]ethyl)carbamoyl]ethyl]-3,3-dimethylbutanamide]",% increase in MCP-1,[1]; 10 uM,≥10%
same,% increase in Proliferation,[4],≥10%
same,% decrease in Eotaxin-3,[2],≥10%
same,% increase in MCP-1,[2]; 10 uM,≥10%
same,% increase in VEGRII,[2]; 10 uM,≥10%
same,inhibition at 10 µM,[2]; [10],≥ 10%
"COC(=O)CC(SCCNC(=O)CCNC(=O)[C@H](O)C(C)(C)COC(C)=O)C(=O)OC (stereo partly drawn) [Compound 149, 1,4-dimethyl 2-[(2-[3-[(2R)-4-(acetyloxy)-2-hydroxy-3,3-dimethylbutanamido]propanamido]ethyl)sulfanyl]butanedioate]",% increase in VEGRII,[2]; 10 uM,≥10%
same,inhibition at 10 µM,[2]; [10],≥ 10%
"CC(O)C(C(=O)SCCNC(=O)CCNC(=O)[C@H](O)C(C)(C)CO)C(C)O (stereo partly drawn) [Compound 1285, (2R)-2,4-dihydroxy-N-[2-[(2-[[3-hydroxy-2-(1-hydroxyethyl)butanoyl]sulfanyl]ethyl)carbamoyl]ethyl]-3,3-dimethylbutanamide]",activation at 10 µM,[3]; [6],≥ 10%
"CC(=O)SCCNC(=O)CCNC(=O)[C@H](O)C(C)(C)COC(=O)CN [Compound 560, (3R)-3-[(2-[[2-(acetylsulfanyl)ethyl]carbamoyl]ethyl)carbamoyl]-3-hydroxy-2,2-dimethylpropyl 2-aminoacetate]",activation at 10 µM,[3]; [6],≥ 10%
"CC(C)(CO)[C@@H](O)C(=O)NCCC(=O)NCCSC(=O)CCCO [Compound 1304, (2R)-2,4-dihydroxy-N-[2-([2-[(4-hydroxybutanoyl)sulfanyl]ethyl]carbamoyl)ethyl]-3,3-dimethylbutanamide]",activation at 10 µM,[3]; [9],≥ 10%
"CC(=O)OCC(C)(C)[C@@H](O)C(=O)NCCC(=O)NCCSC(=O)CC(=O)CCC(=O)O [Compound 140, 6-[(2-[3-[(2R)-4-(acetyloxy)-2-hydroxy-3,3-dimethylbutanamido]propanamido]ethyl)sulfanyl]-4,6-dioxohexanoic acid]",activation at 10 µM,[3]; [6],≥ 10%
